Results from patent publication US5527811A, “Isoquinolinyl compounds which are useful in treating cerebral vascular disorders” (Takeda Chemical Industries, Ltd., priority 1993, dated 1996).
pIC50: −log10 of the molar value. Structures can show the parent of a compound that is named as a salt. Where two headings read alike, the source gives them in different places.

Key:
[1] = tested on: transient cerebral ischemia in mongolian gerbils; assay: Protective effect of cerebralischemia: survival ratio after bilateral common carotid occlusion and reperfusion in gerbils; type: in vivo, mongolian gerbil; settings: Meriones unguiculatus, ip, 30 min before occlusion and 90 min after reperfusion, estimated 8 hr after reperfusion, control 0; for responders at 5 mg/kg: read-out: Survival ratio
Method: Test Example 1 Protective effect of cerebralischemia
Male mongolian gerbils (Seiwa/8-10 wks) (n=8-10) were used. Bilateral common carotid arteries were occluded after the incision of the center of the neck under ether anesthesia. Global cerebral ischemia was induced by the occlusion of bilateral common carotid arteries (15 minutes), and after that these arteries were reperfused. Test sample was administered intraperiatonelly 30 minutes before occlusion and 90 minutes after reperfusion. In the control group, vehicle (distilled water, saline or 5% gum arabic) was administered in the same fashion. Survival ratio was estimated at 8 hr after reperfusion (Table 2).

[2] = tested on: brain edema in male wistar rats; assay: Anti-brain edema effect (middle cerebral arterial occlusion and reperfusion model); type: in vivo, rat (wistar); settings: 10 mg/kg(ip) × 7, rat, 3rd day after reperfusion, * p < 0.05; for H2O (water content of brain): control 81.27 (Example 1), 80.94 (Example 15(HCl)); for Na (sodium content of brain): control 405 (Example 1), 371 (Example 15(HCl)); for K (potassium content of brain): control 430 (Example 1), 440 (Example 15(HCl))
Excerpt: Test Example 2 Anti-brain edema effect (middle cerebral arterial occlusion and reperfusion model)
Male wistar rats (Jcl:9wks) were anesthetized with inhalation of halothane (2-bromo-2-chloro-1,1,1-trifluoroethane). After the incision of neck, bilateral common carotid arteries were […] an embolized needle (diameter 0.3 mm, length 26 mm nylon thread) was inserted into the left internal carotid artery through external carotid artery and, simultaneously, the bilateral common carotid arteries were occluded by the Sugita's aneurysm clips. The embolized needle and the clips were removed out 30 minutes after occlusion. Test sample was administered immediately and 5 hr after reperfusion on the operated day, twice a day on the 1st and 2nd day, and 1 hr before removing the brain on the 3rd day (total 7 times), intraperiatonelly. In the control group, vehicle (distilled water, saline or 5% gum arabic) was administered in the same fasion. Brain edema on the 3rd day after reperfusion was estimated from the content of water, potassium and sodium in cerebral cortex and striatum. Water content was calculated from the ratio of dried brain weight and wet brain weight [(1-dried weight/wet weight)×100%]. The contents of pottasium and sodium were measured using the solution extracted from dried brain tissue with 14% nitric acid by the method of the framephotometer (Table 3).

[3] = tested on: cytosolic free Ca^2+ in hippocampal neurons; assay: Effect on cytosolic free Ca^2+ concentration in neurons (L-glutamic acid-induced [Ca^2+]i increase, fura-2); type: cell-based; settings: Rattus norvegicus, Hippocampal neuron, L-Glu.-induced [Ca^2+]i increase
Method: Effect on cytosolic free Ca^2+ concentration in neurons
Neurons were harvested from hippocampi of 18-day-old rat embryos and cultured based on the method of Hatanaka and Tsukui (Developmental Brain Research, 30, 47-56, 1986). Hippocampal neurons suspended in Dulbecco's modified Eagle's medium were seeded on cover glass slides (10×20 mm, Matunami No. 1, Osaka, Japan) coated with poly-L-lysin at a density of 2.5×10^5 cells/slide and cultured for 7 days in humidified CO2 incubator (95% air/5% CO2) at 37° C. The neurons were washed 3 times with HEPES [N-(2-hydroxyethyl)piperazine-N'-2-ethanesulfonic acid]-buffered physiological salt solution (PSS) (140 mM NaCl, 5 mM KCl, 1 mMMgSO4, 1 mM Na2 HPO4, 1 mM CaCl2, 25 mM glucose, 25 mM HEPES, pH7.4), and then loaded with fura-2 acetoxymethyl ester (4 μM) in HEPES-buffered PSS for 60 min at 37° C. The cover glass slide coated with neurons, which were loaded with fura-2, was inserted into a cuvette that contained 2.5 ml HEPES-buffered PSS supplemented with 0.05% bovine serum albumin. Ca2+ -fura-2 fluorescence was measured with Hitachi F-2000 spectrofluorimeter by 340 nm and 380 nm for excitation and 505 nm for emission. Cytosolic free Ca^2+ concentration ([Ca^2+ ]i) values were calculated according to the method of Grynkiewicz et. al, (Journal of Biological Chemistry, 260, 3440-3450, 1985). Neurons were treated with example-compounds 5 min before the addition of L-glutamic acid (L-Glu.).
L-Glu. leads to two phases-increase of [Ca^2+ ]i in neurons. The first increase of [Ca^2+ ]i is caused by the release from cellular Ca^2+ stores and the influx of extracellular Ca^2+. The second one is caused by the influx of extracellular Ca^2+. The effect of the drug on these two phases-increase of [Ca^2+ ]i was examined and the 50% inhibitory dose (IC50) was calculated.

[4] = target: T1, substance P receptor from human lymphoblast cells (IM-9) (Homo sapiens, UniProt P25103); assay: Radioligand receptor binding inhibitory assay using receptor from human lymphoblast cells (IM-9), 125I-BHSP; settings: 25° C., 30 minutes, pH 7.4
T1 construct: The receptor was prepared from human lymphoblast cells (IM-9); endogenous in cells; host or cells: IM-9 human lymphoblast cells (washed membrane preparation)
Method: Radioligand receptor binding inhibitory assay using receptor from human lymphoblast cells (IM-9)
The method of "A. Margaret et al. Molecular Pharmacology 42, 458 (1992)" was modified and used. The receptor was prepared from human lymphoblast cells (IM-9). IM-9 cells were grown in 175 cm^2 tissue culture flasks (100 ml z 10) at a density approximately 2×10^5 /ml of RPMI 1640 with L-glutamine, 10% (V/V) heat inactivated fetal calf serum, penicillin (100 u/ml), and streptomycin (100 μg/ml) at 37° C. in 5%CO2 /95% air for 3 days. IM-9 cells were obtained by centrifugation at 500 Xg for 5 minutes at 5° C. The pellet obtained was washed once with phosphate buffer (Flow Laboratories, CAT No. 28-103-05), homogenized using Polytron homogenizer (Kinematika, Germany) in 30 ml of 50 mM Tris-HCl buffer containing 120 mM NaCl, 5 mM KCl, 2 μg/ml phenylmethyl sufonyl fluoride, and 1 mM ethylenediamine tetra-acetic acid and then centrifuged at 40,000 Xg for 20 minutes. The residue was washed twice with 30 ml of buffer described above, and preserved frozen (-80° C.).
The above specimen was suspended in a reaction buffer (50 mM Tris-HCl buffer (pH 7.4), 0.02% bovine serum albumin, 1 mM phenylmethylsufonyl fluoride, 2 μg/ml chymostatin, 40 μg/ml bacitracin, 3 mM manganese chloride) at a protein concentration of 1.5 mg/ml and a 100 μl portion of the suspension was used in the reaction. After addition of the sample and 125I-BHSP (0.46 KBq), the reaction was conducted in 0.2 ml of reaction buffer at 25° C. for 30 minutes. The amount of nonspecific binding was determined by adding substance P at a final concentration of […]. After the reaction, using a cell harvester (290PHD, Cambridge Technology, Inc., England), rapid filtration was carried out through a glass filter (GF/B, Whatman, U.S.A.) to stop the reaction. After washing three times with 250 μl of 50 mM Tris-HCl buffer (pH 7.4) containing 0.02% bovine serum albumin, the radioactivity remaining on the filter was measured with a gamma counter. Before use, the filter was immersed in 0.1% polyethyleneimine for 24 hours and air-dried. […]

T1 sequence (P25103 whole entry): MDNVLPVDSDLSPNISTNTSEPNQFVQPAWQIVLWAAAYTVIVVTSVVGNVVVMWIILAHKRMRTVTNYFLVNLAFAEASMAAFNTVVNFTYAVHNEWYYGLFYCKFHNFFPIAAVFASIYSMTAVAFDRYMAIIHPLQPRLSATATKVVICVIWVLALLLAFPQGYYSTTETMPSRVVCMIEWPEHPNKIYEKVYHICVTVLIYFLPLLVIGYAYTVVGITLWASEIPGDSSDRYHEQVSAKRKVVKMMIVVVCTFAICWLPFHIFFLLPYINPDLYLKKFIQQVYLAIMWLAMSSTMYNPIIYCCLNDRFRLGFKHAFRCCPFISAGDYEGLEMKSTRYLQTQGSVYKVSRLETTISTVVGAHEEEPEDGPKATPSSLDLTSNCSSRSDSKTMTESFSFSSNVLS

Compound	responders at 5 mg/kg [1] [%]	H2O (water content of brain) [2] [%]	Na (sodium content of brain) [2] [mEq/kg]	K (potassium content of brain) [2] [mEq/kg]	pIC50 [4]	further results
CN(C)Cc1cccc(NC(=O)NCc2c(-c3ccccc3)c3cc(Cl)ccc3c(=O)n2C)c1 [15 (HCl), N-[(6-Chloro-1,2-dihydro-2-methyl-1-oxo-4-phenylisoquinolin-3-yl)methyl]-N'-(3-N,N-dimethylaminomethylphenyl)urea hydrochloride]	88	80.24 ± 0.23	325 ± 17	466 ± 9	–	responders at 0.3 mg/kg ([1]; 0.3 mg/kg): 80%
CC(C)Oc1cccc(NC(=O)NCc2c(-c3ccccc3)c3cc(Cl)ccc3c(=O)n2C)c1 [Example 1, N-[(6-Chloro-1,2-dihydro-2-methyl-1-oxo-4-phenylisoquinolin-3-yl)methyl]-N'-(3isopropoxyphenyl)urea]	88	80.12 ± 0.32	322 ± 24	471 ± 13	–	pIC50 ([3]; with EGTA, 1st phase (release from cellular Ca^2+ stores), read-out: IC50 with EGTA, 1st Phase): 7.16; pIC50 ([3]; without EGTA, 1st phase, read-out: IC50 without EGTA, 1st Phase): 5.52; pIC50 ([3]; without EGTA, 2nd phase, read-out: IC50 without EGTA, 2nd Phase): < 5.00
Cc1cc2c(-c3ccccc3)c(CN(C)C(=O)c3cc(C(F)(F)F)cc(C(F)(F)F)c3)n(C)c(=O)c2cc1C [Example 36, 3,5-Bis(trifluoromethyl)-N-[(1,2-dihydro-2,6,7-trimethyl-1-oxo-4-phenylisoquinolin-3-yl)methyl]-N-methylbenzamide]	–	–	–	–	7.33	–
CN(Cc1c(-c2ccccc2)c2ccccc2c(=O)n1C)C(=O)c1cc(C(F)(F)F)cc(C(F)(F)F)c1 [Example 37, 3,5-Bis(trifluoromethyl)-N-[(1,2-dihydro-2-methyl-1-oxo-4-phenylisoquinolin-3-yl)methyl]-N-methyl benzamide]	–	–	–	–	9.00	–
CN(Cc1c(-c2ccccc2)c2cc(Cl)ccc2c(=O)n1C)C(=O)c1cc(C(F)(F)F)cc(C(F)(F)F)c1 [Example 38, 3,5-Bis(trifluoromethyl)-N-[(6-chloro-1,2-dihydro-2-methyl-1-oxo-4-phenylisoquinolin-3-yl)methyl]-N-methylbenzamide]	–	–	–	–	7.14	–
